Measured values taken from BindingDB's records for doi:10.1016/j.bmcl.2015.06.011 (Al-Zaytoonah University of Jordan, 2015).

Assays:
[1] = Inhibition of PI3Kalpha in human HCT116 cells assessed as cell growth inhibition after 24 hrs by MTT assay
[2] = Inhibition of PI3Kalpha H1047R mutant in human HCT116 cells assessed as cell growth inhibition after 24 hrs by MTT assay

Structure (SMILES)	IC50 [1] [µM]	IC50 [2] [µM]
COc1ccc(C(=O)C(OC(=O)c2ccc(F)cc2)c2ccc(OC)cc2)cc1 (stereo not drawn)	2820	2820
O=C(OC(C(=O)c1ccccc1)c1ccccc1)c1ccccc1 (stereo not drawn)	2660	2660
O=C(c1ccccc1)C(O)c1ccccc1 (stereo not drawn)	2120	2120
O=C(OC(C(=O)c1ccccc1)c1ccccc1)c1ccc(F)cc1 (stereo not drawn)	1290	1290
COc1ccc(C(=O)C(O)c2ccc(OC)cc2)cc1 (stereo not drawn) [2-hydroxy-1,2-bis(4-methoxyphenyl)ethan-1-one]	1170	1170

Now those with a lower IC50 [1], led by results:

IC50 [1] [µM]	IC50 [2] [µM]	Structure (SMILES)
880	880	O=C(OC(C(=O)c1ccccc1)c1ccccc1)c1ccc([N+](=O)[O-])cc1 (stereo not drawn)
730	730	O=C(OC(C(=O)c1ccccc1)c1ccccc1)c1ccc(Cl)cc1 (stereo not drawn)
910	910	O=C(OC(C(=O)c1ccccc1)c1ccccc1)c1ccccc1F (stereo not drawn)
970	970	O=C(OC(C(=O)c1ccccc1)c1ccccc1)c1cccc(F)c1 (stereo not drawn)
